Data on 17 molecules can be found in publication PMC10421270, “Investigation on Novel E/Z 2-Benzylideneindan-1-One-Based Photoswitches with AChE and MAO-B Dual Inhibitory Activity” (Molecules, 2023).

SMILES strings stand for the structures. Where “and” joins values, the source holds several entries; their conditions need not be identical. Equal values may be shown once. Read-outs that look alike come from different tables or passages of the source.

Data set [1] addresses T1, hAChE (Homo sapiens, UniProt P22303).
T1 construct: purchased Sigma Aldrich (Milan, Italy)
Put plainly: biochemical. Type of data set: biochemical.

A further data set concerns the target T2, human recombinant MAO-A (Homo sapiens, UniProt P21397).
T2 construct: purchased Sigma Aldrich (Milan, Italy); host or cells: baculovirus-infected insect cells
T2 sequence (P21397 1-527): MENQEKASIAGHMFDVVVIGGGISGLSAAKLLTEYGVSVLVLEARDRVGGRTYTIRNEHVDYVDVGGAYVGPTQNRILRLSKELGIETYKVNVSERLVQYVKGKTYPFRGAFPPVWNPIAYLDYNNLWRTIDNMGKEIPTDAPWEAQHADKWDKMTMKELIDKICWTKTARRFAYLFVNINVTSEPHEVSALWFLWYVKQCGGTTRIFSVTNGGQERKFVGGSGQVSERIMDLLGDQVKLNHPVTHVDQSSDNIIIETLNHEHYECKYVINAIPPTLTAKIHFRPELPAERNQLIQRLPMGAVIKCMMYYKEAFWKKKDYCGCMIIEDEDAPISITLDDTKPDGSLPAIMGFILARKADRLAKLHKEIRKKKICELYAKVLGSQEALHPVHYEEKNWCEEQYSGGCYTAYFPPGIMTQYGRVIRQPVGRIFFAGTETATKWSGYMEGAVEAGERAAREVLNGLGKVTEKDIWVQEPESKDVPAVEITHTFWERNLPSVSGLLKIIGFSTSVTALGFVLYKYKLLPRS
Put plainly: biochemical. As to conditions: for inhibition at 10 µM: read-out: MAO-A % inhibition at 10 μM, human MAO-A, values in parentheses; for IC50: MAO-A IC50, human MAO-A, mean ± SD of three independent measurements.

For a further data set, the target named is T3, BChE from human serum (Homo sapiens, UniProt P06276).
T3 construct: BChE from human serum; purchased Sigma Aldrich (Milan, Italy); host or cells: human serum
Put plainly: biochemical. To be noted: for inhibition at 10 µM: read-out: BChE % inhibition at 10 μM, 10 μM, values in parentheses, n.a. = not active; for IC50: mean ± SD of three independent measurements.

For the next data set, the target named is T4, human recombinant MAO B (Homo sapiens, UniProt P27338).
T4 construct: purchased Sigma Aldrich (Milan, Italy); host or cells: baculovirus-infected insect cells
T4 sequence (P27338 1-520): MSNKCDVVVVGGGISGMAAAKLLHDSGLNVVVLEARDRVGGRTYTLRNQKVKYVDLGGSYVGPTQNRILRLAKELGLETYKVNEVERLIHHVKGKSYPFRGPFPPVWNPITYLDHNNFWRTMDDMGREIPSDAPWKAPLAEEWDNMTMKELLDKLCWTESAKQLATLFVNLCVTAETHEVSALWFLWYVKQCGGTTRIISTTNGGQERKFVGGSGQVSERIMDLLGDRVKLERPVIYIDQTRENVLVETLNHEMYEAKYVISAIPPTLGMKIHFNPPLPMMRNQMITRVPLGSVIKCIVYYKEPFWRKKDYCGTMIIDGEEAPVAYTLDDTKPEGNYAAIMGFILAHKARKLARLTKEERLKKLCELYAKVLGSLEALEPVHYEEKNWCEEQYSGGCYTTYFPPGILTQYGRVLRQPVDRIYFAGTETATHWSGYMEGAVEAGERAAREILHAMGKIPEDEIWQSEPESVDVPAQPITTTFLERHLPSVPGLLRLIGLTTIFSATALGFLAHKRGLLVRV
Put plainly: biochemical. As to conditions: mean ± SD of three independent measurements.

For data set [2], the target named is T1, hAChE. On the set-up: method as in PMID 35923722. As to conditions: read-out: AChE IC50; previously reported values; ref [40]; listed as E-1; cited from earlier work.
On the set-up of data set [3]: method as in PMID 35923722. To be noted: ref [40]; cited from earlier work.
Data set [4] in a line: UV-B photoisomerization to the photostationary state (1H NMR). It counts as physicochemical. As to conditions: 10 mM in methanol, two 15 W UV-B lamps, 24 °C; almost completed. Here is the method:
Using ^1H NMR spectroscopy, the formation of the Z diastereoisomer can be determined with confidence. Specifically, as previously done for 1a, methanol-d4 solutions of compounds 1b–e at a concentration of about 10 mM were irradiated with UV-B light in a Pyrex NMR tube and observed until the photostationary state (PSS) was reached.
The same procedure was followed for compounds 1f–h. However, due to the poor solubility in methanol at the concentrations required for ^1H NMR analysis, 1f–h was irradiated and monitored in an acetone-d6 solution. The diastereomeric E/Z ratio of the obtained PSS-1b–h was determined by calculating the area of the easily distinguishable signals assigned to the E and Z isomers (Figure 4).
The solution was irradiated with UV-B light until reaching the PSSUV-B (almost completed in 50–80 min). Subsequently, the PSSUV-B solution was irradiated under the same conditions with UV-C light generated using two lamps (15 Watt GT15T8 Hg UV-C tube), observing the photoconversion of the cis isomer into the trans isomer without the appearance of photodegradation.

Data set [5] concerns the target T1, hAChE. Put plainly: AChE inhibition kinetics (Lineweaver–Burk, replot of slopes). Type of data set: biochemical.
On the set-up of data set [6]: method as in PMID 35923722. As to conditions: Z isomer, thermal reversion; ref [40]; cited from earlier work.
[7] abbreviates: human AChE, mean ± SD of three independent measurements, read-out: AChE IC50.

T3 sequence (P06276 29-602): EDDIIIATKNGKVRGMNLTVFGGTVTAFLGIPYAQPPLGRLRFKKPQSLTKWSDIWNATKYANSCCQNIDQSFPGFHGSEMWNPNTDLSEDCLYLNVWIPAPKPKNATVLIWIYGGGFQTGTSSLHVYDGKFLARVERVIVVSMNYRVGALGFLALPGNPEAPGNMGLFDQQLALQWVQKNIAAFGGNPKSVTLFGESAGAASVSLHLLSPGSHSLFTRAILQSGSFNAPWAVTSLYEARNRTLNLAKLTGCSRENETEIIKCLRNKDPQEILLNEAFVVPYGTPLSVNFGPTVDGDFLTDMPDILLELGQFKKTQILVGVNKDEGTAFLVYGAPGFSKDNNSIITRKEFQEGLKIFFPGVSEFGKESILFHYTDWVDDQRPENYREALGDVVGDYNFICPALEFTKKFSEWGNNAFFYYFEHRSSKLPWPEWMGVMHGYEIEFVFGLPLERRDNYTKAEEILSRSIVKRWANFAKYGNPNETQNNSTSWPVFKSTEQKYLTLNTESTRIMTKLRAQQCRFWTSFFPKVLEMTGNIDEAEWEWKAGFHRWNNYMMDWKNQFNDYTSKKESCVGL
T1 sequence (P22303 32-614): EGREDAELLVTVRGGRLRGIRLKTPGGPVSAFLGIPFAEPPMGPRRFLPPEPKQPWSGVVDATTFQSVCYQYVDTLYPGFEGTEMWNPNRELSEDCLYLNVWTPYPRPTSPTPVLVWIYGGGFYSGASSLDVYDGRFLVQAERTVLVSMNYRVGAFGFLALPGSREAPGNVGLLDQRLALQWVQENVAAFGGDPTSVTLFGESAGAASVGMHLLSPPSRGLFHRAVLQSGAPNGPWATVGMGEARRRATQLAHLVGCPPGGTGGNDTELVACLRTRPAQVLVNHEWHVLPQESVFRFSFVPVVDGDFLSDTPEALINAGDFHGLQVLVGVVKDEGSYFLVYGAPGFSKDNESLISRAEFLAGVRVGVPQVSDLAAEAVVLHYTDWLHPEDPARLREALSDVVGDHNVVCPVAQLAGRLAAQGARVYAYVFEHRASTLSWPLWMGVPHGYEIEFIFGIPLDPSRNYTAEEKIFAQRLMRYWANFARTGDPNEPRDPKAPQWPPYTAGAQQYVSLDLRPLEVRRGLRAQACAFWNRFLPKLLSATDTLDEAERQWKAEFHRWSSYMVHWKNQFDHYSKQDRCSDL
Procedure for BChE from human serum: Human isoforms of ChEs (human recombinant AChE and BChE from human serum) and MAOs (from baculovirus-infected insect cells), purchased from Sigma Aldrich (Milan, Italy), were used for inhibition assays. Experiments were performed in 96-well plates (Greiner Bio-One, Kremsmünster, Austria) on the Infinite M1000 Pro plate reader (Tecan, Cernusco s.N., Italy), using already published protocols [46, 58, 59, 60].
Procedure for human recombinant MAO B: In MAOs’ inhibition assays, each test compound, at 10 μM concentration, was preincubated for 20 min at 37 °C with 50 μM kynuramine as the substrate in 0.1 M phosphate-buffered solution (PBS) pH 8.0 made 0.39 osmolar with KCl. After the addition of human recombinant MAO-A (250 U/mg) or MAO B (59 U/mg) and a further 30 min of incubation, NaOH was added, and the fluorescence read at 310/400 nm excitation/emission wavelength. […] For the kinetic study on the inhibition mechanism of MAO B, three diverse scalar concentrations of the inhibitor and seven concentrations of kynuramine were used [40, 61, 62].

One may read the IC50 as the midpoint of a concentration-inhibition curve. As a reminder, the inhibition is the percentage by which the read-out fell short of the control. Take `CCN(CC)Cc1ccc(C=C2Cc3cc(OC)ccc3C2=O)cc1` (mixture of isomers) [E/Z-1a]: the figures for the IC50 at hAChE [1] and at human recombinant MAO B were 780 ± 13 nM and 1590 ± 40 nM, respectively. Further, the figures for the inhibition at 10 µM on human recombinant MAO-A and on BChE from human serum were 45% and 28%, respectively.

Regarding `CCN(CC)Cc1ccc(/C=C2\Cc3cc(OC)ccc3C2=O)cc1` [Compound E-1a, 2-(4-((diethylamino)methyl)benzylidene)-5-methoxy-2,3-dihydro-1H-inden-1-one], the IC50 on hAChE [1] is 105 ± 5 nM; on BChE from human serum, 10000 ± 150 nM; at hAChE [2] it was 110 nM; on human recombinant MAO B, 260 ± 12 nM. Besides, the inhibition at 10 µM at human recombinant MAO-A amounted to 33%. Besides, the “Z-isomer in the photostationary state (PSS) after UV-B light” value in [3] is listed as 75%.

For the molecule `COc1ccc2c(c1)C/C(=C\c1ccc(CN(C)C)cc1)C2=O` [Compound E-1b, (E)-2-(4-((Dimethylamino)methyl)benzylidene)-5-methoxy-2,3-dihydro-1H-inden-1-one], the results for the IC50 at hAChE [1] (setting [7]) and at human recombinant MAO B were 155 ± 10 nM and 686 ± 59 nM, respectively. Besides, the inhibition at 10 µM at human recombinant MAO-A stood at 33%.

In the case of `CCCN(CCC)Cc1ccc(/C=C2\Cc3cc(OC)ccc3C2=O)cc1` [Compound E-1c, (E)-2-(4-((Dipropylamino)methyl)benzylidene)-5-methoxy-2,3-dihydro-1H-inden-1-one], in data set [4], the “time to reach PSS under UV-B irradiation” value is 50 to 80 min. Also, the IC50 turned out to be 174 ± 17 nM on hAChE [1] (setting [7]) and 479 ± 81 nM at human recombinant MAO B. Also, the inhibition at 10 µM came out at 15% at human recombinant MAO-A and 28% at BChE from human serum.

For `CCCCN(CCCC)Cc1ccc(/C=C2\Cc3cc(OC)ccc3C2=O)cc1` [Compound E-1d, (E)-2-(4-((Dibutylamino)methyl)benzylidene)-5-methoxy-2,3-dihydro-1H-inden-1-one], the IC50 at hAChE [1] (setting [7]) worked out at 990 ± 50 nM; on human recombinant MAO B, 338 ± 36 nM. The inhibition at 10 µM on human recombinant MAO-A is 12%; at BChE from human serum, 28%.

Turning to `CCCCN(C)Cc1ccc(/C=C2\Cc3cc(OC)ccc3C2=O)cc1` [Compound E-1e, (E)-2-(4-((Butyl(methyl)amino)methyl)benzylidene)-5-methoxy-2,3-dihydro-1H-inden-1-one], the IC50 on hAChE [1] (setting [7]) was 102 ± 19 nM; against BChE from human serum, 5000 ± 450 nM; on human recombinant MAO B, 178 ± 86 nM. Also, the inhibition at 10 µM at human recombinant MAO-A was 20%.

With `COc1ccc2c(c1)C/C(=C\c1ccc(CN(C(C)C)C(C)C)cc1)C2=O` [Compound E-1f, (E)-2-(4-((Diisopropylamino)methyl)benzylidene)-5-methoxy-2,3-dihydro-1H-inden-1-one], the IC50 at hAChE [1] (setting [7]) amounted to 261 ± 14 nM; against BChE from human serum, 10000 ± 850 nM. In addition, the inhibition at 10 µM at human recombinant MAO-A was 22%.

Turning to `COc1ccc2c(c1)C/C(=C\c1ccc(CN(C)Cc3ccccc3)cc1)C2=O` [Compound E-1g, (E)-2-(4-((Benzyl(methyl)amino)methyl)benzylidene)-5-methoxy-2,3-dihydro-1H-inden-1-one], the values for the IC50 on hAChE [1] (setting [7]), against BChE from human serum and at human recombinant MAO B were 115 ± 4 nM, 9900 ± 110 nM and 292 ± 60 nM, respectively. Further, the inhibition at 10 µM on human recombinant MAO-A turned out to be 39%.

As a reminder, the Ki is a dissociation constant, usually derived from enzyme kinetics or from competition with a known ligand. Regarding `CCN(Cc1ccccc1)Cc1ccc(/C=C2\Cc3cc(OC)ccc3C2=O)cc1` [Compound E-1h, (E)-2-(4-((Benzyl(ethyl)amino)methyl)benzylidene)-5-methoxy-2,3-dihydro-1H-inden-1-one], at hAChE [1] (PSS mixture versus pure E isomer), the “decrease of AChE inhibitory potency on photoisomerization to Z (75% Z in PSS)” value is given as “about 30%”. Also, the results for the IC50 on hAChE [1] (setting [7]), against BChE from human serum and on human recombinant MAO B were 39 ± 1 nM, 7000 ± 10 nM and 355 ± 134 nM, respectively. For the same molecule, the inhibition at 10 µM at human recombinant MAO-A stood at 13%. Moreover, the “mechanism of AChE inhibition” value on hAChE [5] (Lineweaver–Burk, both Vmax and Km changed) is “mixed-type inhibition”. Further, on hAChE [5] (replot of slopes versus [I], x-axis intercept, hAChE 0.2 U/mL, acetylthiocholine iodide 50–300 μM), the Ki is 100 nM.

For the molecule `CCN(CC)Cc1ccc(/C=C2/Cc3cc(OC)ccc3C2=O)cc1` [Compound Z-1a], the “half-life in MeOH at room temperature” value in [6] is recorded as 47 days.

With `COc1ccc2c(c1)CC(=Cc1ccc(CN(C)C)cc1)C2=O` [E/Z-1b], the values for the IC50 on hAChE [1] (setting [7]) and at human recombinant MAO B were 915 ± 138 nM and 839 ± 123 nM, respectively. Moreover, the inhibition at 10 µM turned out to be 32% at human recombinant MAO-A and 25% at BChE from human serum.

As to `CCCN(CCC)Cc1ccc(C=C2Cc3cc(OC)ccc3C2=O)cc1` [E/Z-1c], the IC50 on hAChE [1] (setting [7]) is 295 ± 45 nM; on human recombinant MAO-A, ~3000 nM and 2980 nM; on human recombinant MAO B, 743 ± 48 nM. Also, the inhibition at 10 µM at BChE from human serum came to 20%.

For the molecule `CCCCN(CCCC)Cc1ccc(C=C2Cc3cc(OC)ccc3C2=O)cc1` [E/Z-1d], the IC50 at hAChE [1] (setting [7]) is 2280 ± 210 nM; at human recombinant MAO B it was 382 ± 6 nM. Further, the inhibition at 10 µM on human recombinant MAO-A came to 37%.

As for `CCCCN(C)Cc1ccc(C=C2Cc3cc(OC)ccc3C2=O)cc1` [E/Z-1e], the IC50 at hAChE [1] (setting [7]) is 1360 ± 60 nM; at human recombinant MAO B, 651 ± 61 nM. In addition, the inhibition at 10 µM on human recombinant MAO-A worked out at 25%.

For the molecule `COc1ccc2c(c1)CC(=Cc1ccc(CN(C(C)C)C(C)C)cc1)C2=O` [E/Z-1f], the IC50 is 1410 ± 90 nM at hAChE [1] (setting [7]); ~3000 nM and 3190 nM at human recombinant MAO-A; 241 ± 26 nM on human recombinant MAO B. Besides, the inhibition at 10 µM at BChE from human serum came out at 20%.

Take `COc1ccc2c(c1)CC(=Cc1ccc(CN(C)Cc3ccccc3)cc1)C2=O` [E/Z-1g]: the IC50 on hAChE [1] (setting [7]) is 135 ± 62 nM; on human recombinant MAO B it was 354 ± 70 nM. The inhibition at 10 µM on human recombinant MAO-A stood at 49%; at BChE from human serum, 40%.

For the molecule `CCN(Cc1ccccc1)Cc1ccc(C=C2Cc3cc(OC)ccc3C2=O)cc1` [E/Z-1h], the values for the IC50 at hAChE [1] (setting [7]), at BChE from human serum and on human recombinant MAO B were 53 ± 6 nM, 10000 ± 320 nM and 358 ± 8 nM, respectively. In addition, at human recombinant MAO-A, the inhibition at 10 µM amounted to 39%.
